For the assay, the system named is human osteoblasts (KK-3, 18PDL). In words: Measurement of bone formation activity (KK-3, 14 days). The assay is classed as cell-based. As to the method:
Human osteoblasts (KK-3, 18PDL) were cultured in an α-MEM containing 10% fetal calf serum. After the growth became stationary, the compound was added in a given concentration in the presence of 2 mM α-glycerophosphate and treated for 14 days. The cell phase was washed with physiological saline, and the alkaline phosphatase activity (ALP) was measured through the absorption of OD415. Then, calcium (Ca) and phosphorus (P) were extracted with a 2N hydrochloric acid and quantitatively determined.

[1] abbreviates: Table 26, 10^-6 M, control 0.27 ± 0.04.
[2] abbreviates: Table 26, 10^-6 M, control 30.68 ± 3.33.
[3] abbreviates: Table 26, 10^-6 M, control 45.61 ± 6.19.
[4] abbreviates: Table 26, 10^-7 M, control 0.27 ± 0.04.
[5] abbreviates: Table 26, 10^-7 M, control 45.61 ± 6.19.
[6] abbreviates: Table 32, 10^-5 M, control 0.80 ± 0.01.
Where [7] appears, read: Table 32, 10^-5 M, control 23.00 ± 1.00.
The mark [8] stands for this setting: Table 32, 10^-6 M, control 0.80 ± 0.01.
The mark [9] stands for this setting: Table 32, 10^-6 M, control 15.67 ± 0.58.
Setting [10] is: Table 32, 10^-6 M, control 23.00 ± 1.00.
[11] abbreviates: Table 27, 10^-7 M, control 0.58 ± 0.03.
Where [12] appears, read: Table 27, 10^-7 M, control 11.83 ± 3.18.
Where [13] appears, read: Table 30, 10^-6 M, control 0.60 ± 0.02.
Setting [14] is: Table 30, 10^-6 M, control 3.00 ± 1.73.
The mark [15] stands for this setting: Table 30, 10^-7 M, control 0.60 ± 0.02.
Where [16] appears, read: Table 30, 10^-7 M, control 3.00 ± 1.73.
[17] abbreviates: Table 30, 10^-7 M, control 5.33 ± 1.15.
The mark [18] stands for this setting: Table 36, 10^-6 M, control 1.17 ± 0.03.
[19] abbreviates: Table 36, 10^-6 M, control 2.33 ± 1.15.
[20] abbreviates: Table 36, 10^-7 M, control 1.17 ± 0.03.
Setting [21] is: Table 36, 10^-7 M, control 2.33 ± 1.15.
Where [22] appears, read: Table 36, 10^-7 M, control 5.00 ± 0.00.
Setting [23] is: Table 35, 10^-5 M, control 1.23 ± 0.02.
Setting [24] is: Table 35, 10^-5 M, control 3.00 ± 1.00.
The mark [25] stands for this setting: Table 35, 10^-6 M, control 1.23 ± 0.02.
[26] abbreviates: Table 35, 10^-6 M, control 3.00 ± 1.00.
The mark [27] stands for this setting: Table 35, 10^-6 M, control 5.67 ± 0.58.
Where [28] appears, read: Table 31, 10^-7 M, control 0.18 ± 0.06.
Where [29] appears, read: Table 31, 10^-7 M, control 1.88 ± 0.31.
The mark [30] stands for this setting: Table 31, 10^-7 M, control 4.73 ± 0.37.
[31] abbreviates: Table 31, 10^-8 M, control 0.18 ± 0.06.
Setting [32] is: Table 31, 10^-8 M, control 1.88 ± 0.31.

Our source for the ALP, P and Ca values is patent publication US5216183A, “Cyclopentanone/cyclopentenone derivative” (Teijin Limited, priority 1988, dated 1993).

Take `O=C1C(Sc2ccccn2)=CC(O)(CCCCOc2ccccc2)C1=CC=CC(O)CCCO` (stereo not drawn): the ALP reads like this: under setting [1], 0.36 ± 0.12 OD413 /dish; under setting [4], 0.29 ± 0.04 OD413 /dish. The same compound returned a P under setting [2] of 42.28 ± 6.99 μg/dish. The Ca came to 70.42 ± 7.82 μg/dish under setting [3] and 56.85 μg/dish under setting [5].
Turning to `CSC1=CC(O)(CCCCOc2ccccc2)C(CC=CC(O)CCCO)C1=O` (stereo not drawn), the ALP reads like this: under setting [6], 0.56 OD415 /dish; under setting [8], 0.84 ± 0.03 OD415 /dish. Further, the Ca is, setting by setting: under setting [7], 30.67 ± 2.31 μg/dish; under setting [10], 10.67 ± 1.53 μg/dish. This compound displayed a P under setting [9] of 9.33 ± 1.15 μg/dish.
Take `O=C1C(SC2CCCCC2)=CC(O)(CCCCOc2ccccc2)C1=CC=CC(O)CCCO` (stereo not drawn) [drawing 1070]: the ALP reads like this: (Table 27, 10^-6 M, control 0.58 ± 0.03) 0.64 ± 0.05 OD413 /dish; under setting [11], 0.53 OD413 /dish. Further, the P (Table 27, 10^-6 M, control 11.50 ± 1.73) was 24.83 ± 2.47 μg/dish. This compound yielded a Ca (Table 27, 10^-6 M, control 11.83 ± 3.18) of 33.50 ± 3.91 μg/dish and a Ca under setting [12] of 19.67 μg/dish.
`Cn1ccnc1SC1=CC(O)(CCCCOc2ccccc2)C(=Cc2ccc(CC(CO)CO)cc2)C1=O` (stereo not drawn): the ALP reads like this: under setting [13], 0.08 OD415 /dish; under setting [15], 0.66 ± 0.03 OD415 /dish. The Ca under setting [14] came to 116.00 μg/dish and the Ca under setting [16] is 11.00 ± 1.73 μg/dish. Under setting [17], this compound had a P of 11.67 ± 1.15 μg/dish.
For `COC(=O)CCCCCC=C1C(=O)C(Sc2nccn2C)=CC1(O)CCCCOc1ccccc1` (stereo not drawn) the same measures were 0.60 OD415 /dish, 0.63 ± 0.02 OD415 /dish, 43.67 μg/dish, 3.67 ± 1.15 μg/dish and 6.33 ± 0.58 μg/dish.
As to `Cn1ccnc1SC1=CC(O)(CCCCOc2ccccc2)C(C(O)C2=C(C(C)(C)O)CCCC2)C1=O` (stereo not drawn), the ALP came out at 0.87 OD415 /dish (Table 36, 10^-5 M, control 1.17 ± 0.03) and 1.20 ± 0.05 OD415 /dish under setting [18]. The compound also yielded a Ca (Table 36, 10^-5 M, control 2.33 ± 1.15) of 50.67 μg/dish and a Ca under setting [19] of 2.00 ± 0.00 μg/dish. The P (Table 36, 10^-6 M, control 5.00 ± 0.00) amounted to 5.00 ± 1.00 μg/dish.
`Cn1ccnc1SC1=CC(O)(CCCCOc2ccccc2)C(=CC=C2CCCCC2)C1=O` (stereo not drawn): the ALP is, setting by setting: under setting [18], 1.09 OD415 /dish; under setting [20], 1.19 ± 0.06 OD415 /dish. The Ca is given as 15.33 μg/dish under setting [19] and 3.33 ± 0.58 μg/dish under setting [21]. Moreover, the P under setting [22] is 5.67 ± 0.58 μg/dish.
On to `CSC1=CC(O)(CCCCOc2ccccc2)C(C(/C=C/C(O)CCCO)OC(C)=O)C1=O` (stereo not drawn), for which the ALP under setting [23] is 0.17 OD415 /dish and the ALP under setting [25] came out at 1.10 ± 0.06 OD415 /dish. Besides, the Ca runs as follows: under setting [24], 104.00 μg/dish; under setting [26], 24.08 ± 2.00 μg/dish. The P under setting [27] was 18.00 ± 1.00 μg/dish.
For the compound `Cn1ccnc1SC1=CC(O)(CCCCOc2ccccc2)C(=CC=CC2(O)CCCCC2)C1=O` (stereo not drawn), the ALP was 0.11 OD415 /dish under setting [13] and 0.58 ± 0.03 OD415 /dish under setting [15]. In addition, the Ca by setting is: under setting [14], 85.67 μg/dish; under setting [16], 14.00 ± 1.00 μg/dish. The compound also gave a P under setting [17] of 12.67 ± 1.15 μg/dish.
As for `O=C1C(SC2CCCCC2)=CC(O)(CCCCOc2ccccc2)C1C(O)C=CC(O)CCCO` (stereo not drawn), the ALP by setting is: under setting [11], 0.55 ± 0.04 OD413 /dish; (Table 27, 10^-8 M, control 0.58 ± 0.03) 0.36 OD413 /dish. Where the note is “Table 27, 10^-7 M, control 11.50 ± 1.73”, the P was determined as 11.67 ± 3.18 μg/dish. Further, the Ca is given as 13.83 ± 1.15 μg/dish under setting [12] and 20.17 μg/dish (Table 27, 10^-8 M, control 11.83 ± 3.18).
With `CSC1=CC(O)C(=CC=CC(O)CCCO)C1=O` (stereo not drawn) [drawing 1082], the ALP by setting is: under setting [6], 0.53 OD415 /dish; under setting [8], 0.81 ± 0.06 OD415 /dish. The same compound gave a Ca under setting [7] of 57.33 ± 2.08 μg/dish and a Ca under setting [10] of 23.00 ± 3.46 μg/dish. The same compound displayed a P under setting [9] of 16.33 ± 2.08 μg/dish.
On to `CCOc1ccc2nc(SC3=CC(O)(CCCCOc4ccccc4)C(=CC=CC(O)CCCO)C3=O)sc2c1` (stereo not drawn) [drawing 1068], for which the ALP runs as follows: under setting [1], 0.10 ± 0.01 OD413 /dish; under setting [4], 0.34 ± 0.06 OD413 /dish. The P under setting [2] was 41.45 ± 7.21 μg/dish. The same compound yielded a Ca under setting [3] of 81.88 ± 8.47 μg/dish and a Ca under setting [5] of 61.19 μg/dish.
As to `CSC1=CC(O)(CCCCOc2ccccc2)C(C(/C=C/C(O)CCCO)OC(=O)OC(C)C)C1=O` (stereo not drawn), the ALP was found to be 0.18 OD415 /dish under setting [23] and 1.22 ± 0.06 OD415 /dish under setting [25]. The Ca reads like this: under setting [24], 109.67 μg/dish; under setting [26], 25.00 ± 1.73 μg/dish. Also, the P under setting [27] amounted to 19.67 ± 1.15 μg/dish.
As for `Cn1ccnc1SC1=CC(O)(CCCCOc2ccccc2)C(=CC=CC(O)CCCO)C1=O` (stereo not drawn) [drawing 1069], the ALP under setting [1] is given as 0.48 ± 0.04 OD413 /dish and the ALP under setting [4] was 0.33 OD413 /dish. This compound came in with a P under setting [2] of 46.43 ± 1.41 μg/dish. The Ca is given as 79.83 ± 0.58 μg/dish under setting [3] and 61.95 μg/dish under setting [5].
The compound `CC(C)OC(=O)OC(/C=C/C(O)CCCO)C1C(=O)C(Sc2nccn2C)=CC1(O)CCCCOc1ccccc1` (stereo not drawn) gave an ALP under setting [23] of 0.165 OD415 /dish and an ALP under setting [25] of 1.24 ± 0.03 OD415 /dish. Also, the Ca is, setting by setting: under setting [24], 136.67 μg/dish; under setting [26], 54.67 ± 2.08 μg/dish. This compound showed a P under setting [27] of 35.00 ± 2.00 μg/dish.
Regarding `COC(=O)COc1cccc(C=C2C(=O)C(SC)=CC2(O)CCCCOc2ccccc2)c1` (stereo not drawn) [drawing 1073], the ALP was determined as 0.52 ± 0.10 OD413 /dish (Table 29, 10^-7 M, control 0.77 ± 0.20) and 0.64 OD413 /dish (Table 29, 10^-8 M, control 0.77 ± 0.20). The compound further registered a P (Table 29, 10^-7 M, control 18.64 ± 3.16) of 21.72 ± 8.88 μg/dish. The compound further registered a Ca (Table 29, 10^-7 M, control 31.26 ± 3.00) of 36.18 ± 14.29 μg/dish and a Ca (Table 29, 10^-8 M, control 31.26 ± 3.00) of 49.16 ± 26.04 μg/dish.
With `CCCCC1=C(Sc2nccn2C)C(=O)C(=CC=CC(O)CCCO)C1(O)CCCCOc1ccccc1` (stereo not drawn) [drawing 1079], the ALP was found to be 0.12 ± 0.01 OD415 /dish under setting [28] and 0.17 OD415 /dish under setting [31]. Moreover, the Ca is given as 4.85 ± 0.84 μg/dish under setting [29] and 2.46 μg/dish under setting [32]. In addition, under setting [30], the P stood at 6.68 ± 0.34 μg/dish.
Consider `CC(=O)OC(/C=C/C(O)CCCO)C1C(=O)C(Sc2nccn2C)=CC1(O)CCCCOc1ccccc1` (stereo not drawn), for which the ALP by setting is: under setting [23], 0.15 OD415 /dish; under setting [25], 1.28 ± 0.03 OD415 /dish. Also, the Ca by setting is: under setting [24], 137.00 μg/dish; under setting [26], 51.67 ± 8.08 μg/dish. Further, under setting [27], the P was determined as 35.33 ± 5.03 μg/dish.
On to `Cn1ccnc1SC1=CC(O)(CCCCOc2ccccc2)C(=C/C=C/CO)C1=O` (stereo not drawn), for which the ALP runs as follows: under setting [18], 1.18 OD415 /dish; under setting [20], 1.20 ± 0.03 OD415 /dish. The Ca is given as 37.33 μg/dish under setting [19] and 2.33 ± 0.58 μg/dish under setting [21]. The compound further showed a P under setting [22] of 4.33 ± 0.58 μg/dish.
Take `CC(C)(C)C1=C(Sc2ccccc2)C(=O)C(=CC=CC(O)CCCO)C1O` (stereo not drawn): the ALP by setting is: under setting [28], 0.16 ± 0.04 OD415 /dish; under setting [31], 0.15 OD415 /dish. Moreover, the Ca runs as follows: under setting [29], 2.43 ± 0.19 μg/dish; under setting [32], 4.07 μg/dish. Under setting [30], this compound returned a P of 4.68 ± 0.27 μg/dish.
Regarding `CSC1=CC(CCCCOc2ccccc2)C(=C/C=C/C(O)CCCO)C1=O` (stereo not drawn), the ALP stood at 0.79 ± 0.02 OD415 /dish (Table 33, 10^-5 M, control 0.80 ± 0.02) and 0.76 OD415 /dish (Table 33, 10^-6 M, control 0.80 ± 0.02). The P (Table 33, 10^-5 M, control 15.67 ± 1.53) was found to be 31.00 ± 1.00 μg/dish. The compound also had a Ca (Table 33, 10^-5 M, control 22.67 ± 3.06) of 50.67 ± 1.15 μg/dish and a Ca (Table 33, 10^-6 M, control 22.67 ± 3.06) of 19.67 ± 2.52 μg/dish.
